Test results from patent US20250066335A1, “POLYSUBSTITUTED 4-HYDROXYPYRIDINE AND 4-HYDROXYQUINOLINE DERIVATIVES AS GPR84 ANTAGONISTS” (UNIVERSITY OF COPENHAGEN, priority 2021, published 2025).
Where a name gives a salt, the structure may show the parent alone.

Biological target: T1, GPR84 (Homo sapiens, UniProt Q9NQS5)
T1 construct: expressed in transfected cells; host or cells: HTLA cells (HEK293 line stably expressing a tTA-dependent luciferase reporter and a β-arrestin2-TEV fusion gene), transiently transfected with PEI
T1 sequence (Q9NQS5 whole entry, the tested form may be a part): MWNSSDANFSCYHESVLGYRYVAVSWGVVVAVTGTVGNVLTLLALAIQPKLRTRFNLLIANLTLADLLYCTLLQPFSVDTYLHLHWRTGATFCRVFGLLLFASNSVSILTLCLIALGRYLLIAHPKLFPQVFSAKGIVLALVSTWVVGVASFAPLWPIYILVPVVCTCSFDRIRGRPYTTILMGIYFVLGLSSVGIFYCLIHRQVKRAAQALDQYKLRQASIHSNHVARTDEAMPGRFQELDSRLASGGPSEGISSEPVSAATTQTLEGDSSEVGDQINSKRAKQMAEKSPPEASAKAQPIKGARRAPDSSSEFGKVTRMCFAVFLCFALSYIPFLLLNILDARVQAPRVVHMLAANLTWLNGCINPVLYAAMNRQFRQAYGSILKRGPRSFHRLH
Assay: PRESTO-Tango β-arrestin2 recruitment assay, GPR84 antagonistic activity
Assay type: cell-based
Details: antagonist activity in the Presto-TANGO assay; inhibition of the response from the agonist ZQ-16 (100 nM); HTLA cells
Protocol: PRESTO-Tango β-arrestin recruitment assay (W.K. Kroeze et al., 2015). HTLA cells (a HEK293 cell line stably expressing a tTA-dependent luciferase reporter and a β-arrestin2-TEV fusion gene) were maintained in Dulbecco's Modified Eagle's Medium (DMEM) supplemented with 10% Fetal Bovine Serum (dFBS), 100 U/mL penicillin and 100 μg/mL streptomycin, 2 μg/mL puromycin and 100 μg/mL hygromycin B in a humidified atmosphere at 37° C. in 5% CO2. For transfection, cells were plated at 9×10^6 to 10×10^6 cells per 15-cm cell-culture dish (day 1). The following day (day 2), cells were transfected by adding 5 μg DNA and 15 μg polyethylenimine (PEI) diluted in 1 mL Opti-MEM (Reduced Serum Medium supplied by ThermoFisher). On day 3, transfected cells were transferred at 25000 cells per well in 40 μl of medium into poly-l-lysine-coated and rinsed 384-well white, clear-bottomed cell-culture plates (Greiner Bio-One). On day 4, dilutions of the ligands to be tested were prepared in 1% dFBS DMEM and 10 μL were added to each well. On day 5, 20 μl per well of Bright-Glo solution (Promega) diluted 10-fold in assay buffer (Hanks' Balanced Salt Solution [HBSS], 20 mM HEPES, 1 mM CaCl2, 1 mM MgCl2, pH adjusted to 7.4 by 5 M NaOH) was added to each well. After incubation for 20 min at room temperature, luminescence was counted in an Enspire luminescence counter at 384 nm. Results in the form of relative luminescence units (RLU) were exported into Excel spreadsheets, and GraphPad Prism was used for analysis of data. To measure constitutive activity, no ligand was added on day 4.
The GPR84 antagonistic activity of the compounds was determined using the PRESTO-Tango β-arrestin2 recruitment assay (Assay I, see assays above), from which the concentration of each compound required for 50% inhibition (IC50) of the response from the agonist ZQ-16 (100 nM) was determined. The antagonistic activity for each compound is given in Table 1 as the pIC50, which is the negative log of the IC50 value when converted to molar.

Compound | IC50 [nM]
CCc1c(O)cc(OC[C@@H]2COCCO2)nc1CCc1ccc(OC)c(C#N)c1 [Example 54, (S)-5-(2-(6-((1,4-dioxan-2-yl)methoxy)-3-ethyl-4-hydroxypyridin-2-yl)ethyl)-2-methoxybenzonitrile] | 1.55
CCc1c(O)cc(OCC2COCCO2)nc1CCc1ccc(OCCN)cc1 (centres unmarked) [Example 45, 6-((1,4-Dioxan-2-yl)methoxy)-2-(4-(2-aminoethoxy)phenethyl)-3-ethylpyridin-4-ol hydrochloride] | 2.34
CCCc1ccc(CCc2nc(OCC3CCCCO3)cc(O)c2C(C)C)cc1 (centres unmarked) [Example 8, 3-Isopropyl-2-(4-propylphenethyl)-6-((tetrahydro-2H-pyran-2-yl)methoxy)pyridin-4-ol] | 81.3
CCCc1ccc(CCc2nc(OCC3COCCO3)cc(O)c2C)cc1 (centres unmarked) [Example 22, 6-((1,4-Dioxan-2-yl)methoxy)-3-methyl-2-(4-propylphenethyl)pyridin-4-ol] | 3.02
CCCc1ccc(CCc2nc(OCC3CCCCO3)cc(O)c2-c2ccc(CC)cc2)cc1 (centres unmarked) [Example 16, 3-(4-Ethylphenyl)-2-(4-propylphenethyl)-6-((tetrahydro-2H-pyran-2-yl)methoxy)pyridin-4-ol] | 70.8
CCCc1ccc(CCc2nc(OCC3CCCCO3)cc(O)c2-c2ccccc2C)cc1 (centres unmarked) [Example 9, 2-(4-Propylphenethyl)-6-((tetrahydro-2H-pyran-2-yl)methoxy)-3-(o-tolyl)pyridin-4-ol] | 389
CCCc1ccc(CCc2nc(OCC3CCCCO3)cc(O)c2-c2ccc(OCC(=O)O)cc2)cc1 (centres unmarked) [Example 19, 2-(4-(4-Hydroxy-2-(4-propylphenethyl)-6-((tetrahydro-2H-pyran-2-yl)methoxy)pyridin-3-yl)phenoxy)acetic acid] | 93.3
CCc1c(O)cc(OCC2COCCO2)nc1CCc1ccc(OCCOc2ccccc2)cc1 (centres unmarked) [Example 38, 6-((1,4-Dioxan-2-yl)methoxy)-3-ethyl-2-(4-(2-phenoxyethoxy)phenethyl)pyridin-4-ol] | 0.2
CCc1c(O)cc(OCC2COCCO2)nc1CCc1ccc(OCCO)cc1 (centres unmarked) [Example 35, 6-((1,4-Dioxan-2-yl)methoxy)-3-ethyl-2-(4-(2-hydroxyethoxy)phenethyl)pyridin-4-ol] | 0.741
CCOC(=O)COc1ccc(CCc2nc(OCC3COCCO3)cc(O)c2C)cc1 (centres unmarked) [Example 28, Ethyl 2-(4-(2-(6-((1,4-dioxan-2-yl)methoxy)-4-hydroxy-3-methylpyridin-2-yl)ethyl)phenoxy)acetate] | 11.2
CCCc1ccc(CCc2nc(OCC3CCCCO3)cc(O)c2CCC)cc1 (centres unmarked) [Example 7, 3-Propyl-2-(4-propylphenethyl)-6-((tetrahydro-2H-pyran-2-yl)methoxy)pyridin-4-ol] | 6.61
CCc1c(O)cc(OCC2COCCO2)nc1CCc1ccc(OCCCNC(=O)OC(C)(C)C)cc1 (centres unmarked) [Example 33, tert-Butyl (3-(4-(2-(6-((1,4-dioxan-2-yl)methoxy)-3-ethyl-4-hydroxypyridin-2-yl)ethyl)phenoxy)propyl)carbamate] | 0.302
CCCc1ccc(CCc2nc(OCC3CCCCO3)cc(O)c2CC)cc1 (centres unmarked) [Example 6, 3-Ethyl-2-(4-propylphenethyl)-6-((tetrahydro-2H-pyran-2-yl)methoxy)pyridin-4-ol] | 2.14
CCOc1ncc(CCc2nc(OCC3COCCO3)cc(O)c2CC)cc1F (centres unmarked) [Example 50, 6-((1,4-Dioxan-2-yl)methoxy)-2-(2-(6-ethoxy-5-fluoropyridin-3-yl)ethyl)-3-ethylpyridin-4-ol] | 1.29
CCc1c(O)cc(OCC2COCCO2)nc1CCc1ccc(OCCN2C(=O)c3ccccc3C2=O)cc1 (centres unmarked) [Example 42, 2-(2-(4-(2-(6-((1,4-Dioxan-2-yl)methoxy)-3-ethyl-4-hydroxypyridin-2-yl)ethyl)phenoxy)ethyl)isoindoline-1,3-dione] | 0.977
CCc1c(O)cc(OCC2COCCO2)nc1CCc1ccc(OCc2nc(C)no2)cc1 (centres unmarked) [Example 40, 6-((1,4-Dioxan-2-yl)methoxy)-3-ethyl-2-(4-((3-methyl-1,2,4-oxadiazol-5-yl)methoxy)phenethyl)pyridin-4-ol] | 2.95
Cc1c(O)cc(OCC2COCCO2)nc1CCc1ccc(OCCN)cc1 (centres unmarked) [Example 29, 2-(4-(2-(6-((1,4-Dioxan-2-yl)methoxy)-4-hydroxy-3-methylpyridin-2-yl)ethyl)phenoxy)ethan-1-aminium chloride] | 16.2
CCCc1ccc(CCc2nc(OCC3CCCCO3)cc(O)c2CCC(=O)O)cc1 (centres unmarked) [Example 14, Sodium 3-(4-hydroxy-2-(4-propylphenethyl)-6-((tetrahydro-2H-pyran-2-yl)methoxy)pyridin-3-yl)propanoate] | 1.12
CCCc1ccc(CCc2nc(OCC3CCCCO3)cc(O)c2CCC(=O)OCC)cc1 (centres unmarked) [Example 13, Ethyl 3-(4-hydroxy-2-(4-propylphenethyl)-6-((tetrahydro-2H-pyran-2-yl)methoxy)pyridin-3-yl)propanoate] | 13.2
CCCc1ccc(CCc2nc(OCC3CCCCO3)cc(O)c2-c2ccc(C(=O)OC)cc2)cc1 (centres unmarked) [Example 20, Methyl 4-(4-hydroxy-2-(4-propylphenethyl)-6-((tetrahydro-2H-pyran-2-yl)methoxy)pyridin-3-yl)benzoate] | 145
CCOc1ccc(CCc2nc(OC[C@@H]3COCCO3)cc(O)c2C)cc1 [Example 24, (S)-6-((1,4-dioxan-2-yl)methoxy)-2-(4-ethoxyphenethyl)-3-methylpyridin-4-ol] | 1.07
CCOC(=O)CCCCOc1ccc(CCc2nc(OCC3COCCO3)cc(O)c2CC)cc1 (centres unmarked) [Example 36, Ethyl 5-(4-(2-(6-((1,4-dioxan-2-yl)methoxy)-3-ethyl-4-hydroxypyridin-2-yl)ethyl)phenoxy)pentanoate] | 0.257
CCc1c(O)cc(OCC2COCCO2)nc1CCc1ccc(OCCCN)cc1 (centres unmarked) [Example 46, 6-((1,4-Dioxan-2-yl)methoxy)-2-(4-(3-aminopropoxy)phenethyl)-3-ethylpyridin-4-ol hydrochloride] | 0.832
CCCc1ccc(CCc2nc(OCC3CCCCO3)cc(O)c2/C=C/C(=O)OCC)cc1 (centres unmarked) [Example 12, Ethyl (E)-3-(4-hydroxy-2-(4-propylphenethyl)-6-((tetrahydro-2H-pyran-2-yl)methoxy)pyridin-3-yl)acrylate] | 21.9
CCOc1ccc(CCc2nc(OCC3CCCCO3)cc(O)c2C#N)cc1 (centres unmarked) [Example 4, 2-(4-Ethoxyphenethyl)-4-hydroxy-6-((tetrahydro-2H-pyran-2-yl)methoxy)nicotinonitrile] | 145
CCCc1ccc(CCc2nc(OCC3CCCCO3)cc(O)c2C)cc1 (centres unmarked) [Example 2, 3-Methyl-2-(4-propylphenethyl)-6-((tetrahydro-2H-pyran-2-yl)methoxy)pyridin-4-ol] | 1.32
CCOc1ccc(-c2ccc3c(O)cc(OCC4CCCCO4)nc3c2)cc1 (centres unmarked) [Example 5, 7-(4-Ethoxyphenyl)-2-((tetrahydro-2H-pyran-2-yl)methoxy)quinolin-4-ol] | 724
CCc1c(O)cc(OCC2COCCO2)nc1CCc1ccc(OCCNC(=O)OC(C)(C)C)cc1 (centres unmarked) [Example 32, tert-Butyl (2-(4-(2-(6-((1,4-dioxan-2-yl)methoxy)-3-ethyl-4-hydroxypyridin-2-yl)ethyl)phenoxy)ethyl)carbamate] | 0.209
CCc1c(O)cc(OC[C@@H]2COCCO2)nc1CCc1ccc(OC)c(OC)c1 [Example 52, (S)-6-((1,4-dioxan-2-yl)methoxy)-2-(3,4-dimethoxyphenethyl)-3-ethylpyridin-4-ol] | 1.26
